Values quoted from earlier work as cited in patent US7767881B2, “Utilization of histamine receptor h3 gene participating in body weight or food intake control” (priority 2001, dated 2010).

How the values were obtained:
[1] = experimental epilepsy model
mice [2] = system: mice
mice [3] = system: mice; remark: listed apart in the source
mice [4] = system: mice; remark: listed apart in the source
[5] = system: senescence-accelerated mice; conditions: senescence-accelerated mice with learning disabilities

Structure (SMILES): CCCN(CCC)C1CCc2cccc(O)c2C1 (centres unmarked) [8-OH-DPAT]
- histamine neuron metabolic turnover (histamine neuron): reduce histamine neuron metabolic turnover

Structure (SMILES): NC(=NCc1ccc(Cl)cc1)SCCCc1cnc[nH]1 [Clobenpropit]
- electroconvulsion [1]: suppressed

Structure (SMILES): C[C@@H](N)Cc1c[nH]cn1 [RAMH, R-α-methylhistamine]
- deep slow-wave sleep (cats; administration of the agonist): significant increase in deep slow-wave sleep
- voluntary movement (rats): decreases voluntary movement
- voluntary movement (mice [2]): decreases voluntary movement

Structure (SMILES): O=C1CC2(CCCC2)CC(=O)N1CCCCN1CCN(c2ncccn2)CC1 [buspirone]
- histamine neuron metabolic turnover (histamine neuron): reduce histamine neuron metabolic turnover

Structure (SMILES): Clc1cccc(Cl)c1NC1=NCCN1 [clinidine]
- histamine neuron metabolic turnover (histamine neuron): reduce histamine neuron metabolic turnover

Structure (SMILES): NCCc1c[nH]cn1 [histamine]
- analgesic/algesic action (mice [3]; mice, intracerebral administration): analgesic and/or algesic action, depending on the dose

Structure (SMILES): S=C(NC1CCCCC1)N1CCC(c2cnc[nH]2)CC1 [thioperamide]
- waking (cats; effect antagonized by RAMH): waking effects were observed
- effect on RAMH-induced increase in deep slow-wave sleep (cats; given against RAMH): reversed
- anxiety (mice [4]): anxiety-inducing effects
- learning [5]: improving learning
- analgesia (mice [3]; due to stimulation of the histamine receptor H1 protein, antagonized by RAMH): attenuation of analgesia
- electroconvulsion [1]: suppressed
